ChEMBL document CHEMBL1137733, “Studies on the interaction of caffeine with bovine hemoglobin” (Eur J Med Chem, 2009)

Target: albumin (Homo sapiens, UniProt P02768)
Assay: Binding affinity to human plasma albumin by ultracentrifugation
Assay type: cell-free
Conditions: read-out: PB (converted)

albumin, sequence (P02768 whole entry): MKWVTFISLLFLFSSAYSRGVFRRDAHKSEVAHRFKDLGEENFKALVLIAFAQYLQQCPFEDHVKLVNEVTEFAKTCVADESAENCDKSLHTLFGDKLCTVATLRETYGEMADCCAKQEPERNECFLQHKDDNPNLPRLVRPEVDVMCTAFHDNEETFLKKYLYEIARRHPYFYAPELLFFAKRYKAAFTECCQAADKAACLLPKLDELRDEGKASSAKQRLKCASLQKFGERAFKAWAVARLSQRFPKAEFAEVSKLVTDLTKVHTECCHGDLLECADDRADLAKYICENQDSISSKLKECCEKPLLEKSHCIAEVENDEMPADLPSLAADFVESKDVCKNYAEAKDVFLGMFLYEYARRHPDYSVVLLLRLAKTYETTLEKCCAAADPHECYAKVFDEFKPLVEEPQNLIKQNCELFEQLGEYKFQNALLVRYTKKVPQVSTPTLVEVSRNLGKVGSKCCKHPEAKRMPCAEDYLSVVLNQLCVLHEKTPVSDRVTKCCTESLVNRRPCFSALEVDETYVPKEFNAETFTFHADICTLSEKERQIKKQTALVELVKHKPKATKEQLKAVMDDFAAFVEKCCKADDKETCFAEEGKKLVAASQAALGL

Compound: Cn1c(=O)c2c(ncn2C)n(C)c1=O [CAFFEINE]
- fraction unbound: 0.622
